Measured values: patent US6829540B1, “Drug discovery using multiple membrane mimetic affinities” (priority 1997, dated 2004)
Like-named read-outs stand apart in the source and are kept apart here.

How the values were obtained:
[1] = cited from earlier work
[2] = HPLC membrane binding on immobilized artificial membrane IAM.PS; format: physicochemical; conditions: for Membrane affinity IAM.PS: Ln weighted, Table 3; for Membrane binding properties IAM.PS: Table 1
Experimental: (§1) The analysis is made by pattern matching membrane binding constants measured on immobilized artificial membrane columns in a high performance liquid chromatography system. Two or more immobilized artificial membrane chromatographic columns are used. Each test compound is injected and chromatographed on each column and the peak width and the peak time of the test compound is recorded and normalized to an internal or external standard. Thus experimentally measured selectivity values (αk′=k′/k′ standard) and normalized standard deviations (αsd=σ/σstandard) were calculated for both the test compounds and compounds of known biological properties. Pattern matching using vector calculus, multivariate analysis or principal component analysis of the αk′ and αsd values of the test compound and the control compounds allows comparison of the membrane binding properties of the test compounds and each of the control compounds or, if the control compounds all have a common biological activity/property, average or mean membrane binding values of the set of control compounds for each membrane surface.
(§2) Membrane binding constants (k′ values) are calculated in accordance with the formula k′=(tr−t0)/t0 wherein tr is the retention time and t0 is the dead time obtained from each injection; however, t0 in the denominator was obtained by averaging the experimentally determined t0 from all injections for each day the data are collected.
(§3) The use of chromatography on immobilized artificial membranes provides data characteristic of both equilibrium binding to the respective membrane mimetic surface (k′ values) and the kinetics of mass transfer between the immobilized artificial membrane surface and the mobile phase (i.e. δ values). […] This unavoidable variation in the experimentally determined k′ and δ values for each test compound and each control compound is eliminated, for pattern matching purposes, by normalizing k′ and δ values to an internal or external standard compound chromatographed on each immobilized artificial membrane column. Thus k′ and δ values for the test compounds are each divided by the respective k′ and δ values of the standard to calculate αk′ and αsd, the selectivity values and normalized standard deviations, respectively. For k′ values, α denotes the selectivity of the immobilized artificial membrane chromatographic surface for molecular recognition of the analyte; α is a thermodynamic property and corresponds to a ratio of membrane partition coefficients.
(§4) Thus, in one embodiment of this invention the membrane binding properties of six hallucinogens were measured on immobilized artificial membranes (IAMs) prepared from phosphatidylcholine (IAM.PC), phosphatidylserine (IAM.PS), phosphatidylethanolamine (IAM.PE), and sphingomyelin (IAM.SM). Mean vectors were calculated for several therapeutic classes of compounds. The calculated mean vector (i.e., the average vector representing a group of compounds with similar biological activity) is shown in Table 1 for hallucinogenic compounds.
(§5) In one embodiment of this invention membrane binding constants are measured by injecting the drugs into high performance liquid chromatographs (HPLC) using immobilized artificial membrane (IAM) columns using the following IAM stationary phases:
(§6) ^esterIAM.PC^C10/C3, ^esterIAM.PE^C10/C3, ^esterIAM.PS^C10/C3, and ^esterIAM.SM^C10/C3
(§7) The peak position of the drug in the chromatogram is a measure of the affinity of the compound for the immobilized membrane surface. The retention time (peak time) was used to calculate the capacity factor, k′, of the compound for the IAM surface. Capacity factors are proportional to equilibrium membrane binding constants K according to
(§8) Membrane binding data (numerical values relating to interaction with membranes or membrane mimetic surfaces) were obtained using HPLC chromatography on a multiplicity of membrane mimetic surfaces, preferably immobilized artificial membranes (IAMs). […]

[3] = HPLC membrane binding on immobilized artificial membrane IAM.SM; format: physicochemical; conditions: for Membrane affinity IAM.SM: Ln weighted, Table 3; for Membrane binding properties IAM.SM: Table 1
Experimental: as §1, §2, §3, §4, §5, §6, §7, §8

[4] = HPLC membrane binding on immobilized artificial membrane IAM.PE; format: physicochemical; conditions: for Membrane affinity IAM.PE: Ln weighted, Table 3; for Membrane binding properties IAM.PE: Table 1
Experimental: as §1, §2, §3, §4, §5, §6, §7, §8

[5] = HPLC membrane binding on immobilized artificial membrane IAM.PC; format: physicochemical; conditions: for Membrane affinity IAM.PC: Ln weighted, Table 3; for Membrane binding properties IAM.PC: Table 1
Experimental: as §1, §2, §3, §4, §5, §6, §7, §8

[6] = Table 7, compounds completely absorbed
[7] = Table 8, high oral absorption training set
[8] = Table 6, low oral absorption training set
[9] = Table 9, compounds with low oral absorption

## O=C1NC(=O)C(c2ccccc2)(c2ccccc2)N1 [phenytoin]
[1]; [6]
  Oral Absorption (%): 100%
[1]; [7]
  Oral Absorption (%): 100%

## COc1cc(CCN)cc(OC)c1OC [mescaline]
[2]
  Membrane affinity IAM.PS: 2.43
  Membrane binding properties IAM.PS: 12.280
[3]
  Membrane affinity IAM.SM: −0.715
  Membrane binding properties IAM.SM: 2.074
[4]
  Membrane affinity IAM.PE: 0.670
  Membrane binding properties IAM.PE: 2.134
[5]
  Membrane affinity IAM.PC: −0.477
  Membrane binding properties IAM.PC: 1.476

## CC(N)Cc1ccc(I)cc1 (stereo not drawn) [p-iodoamphetamine]
[2]
  Membrane binding properties IAM.PS: 258.100
[3]
  Membrane binding properties IAM.SM: 32.410
[4]
  Membrane binding properties IAM.PE: 33.660
[5]
  Membrane binding properties IAM.PC: 24.880

## C=CCc1ccccc1OCC(O)CNC(C)C (stereo not drawn) [alprenolol]
[1]; [6]
  Oral Absorption (%): 96%
[1]; [7]
  Oral Absorption (%): 96%

## COc1cc(CC(C)N)c(OC)cc1I (stereo not drawn) [DOI]
[2]
  Membrane affinity IAM.PS: 6.13
[3]
  Membrane affinity IAM.SM: 2.14
[4]
  Membrane affinity IAM.PE: 3.73
[5]
  Membrane affinity IAM.PC: 2.61

## COc1cc(CCNC(C)=O)cc(OC)c1OC [n-acetylmescaline]
[2]
  Membrane binding properties IAM.PS: 0.736
[3]
  Membrane binding properties IAM.SM: 1.051
[4]
  Membrane binding properties IAM.PE: 1.323
[5]
  Membrane binding properties IAM.PC: 0.706

## Clc1cccc(Cl)c1N=C1NCCN1 [clonidine]
[1]; [6]
  Oral Absorption (%): 95%
[1]; [7]
  Oral Absorption (%): 95%

## CN(C)CCc1c[nH]c2cccc(O)c12 [psilocin]
[2]
  Membrane affinity IAM.PS: 2.80
  Membrane binding properties IAM.PS: 4.941
[3]
  Membrane affinity IAM.SM: 0.502
  Membrane binding properties IAM.SM: 7.532
[4]
  Membrane affinity IAM.PE: 1.79
  Membrane binding properties IAM.PE: 4.818
[5]
  Membrane affinity IAM.PC: 0.900
  Membrane binding properties IAM.PC: 4.656

## C[C@]12C[C@H](O)[C@H]3[C@@H](CCC4=CC(=O)CC[C@@]43C)[C@@H]1CC[C@@H]2C(=O)CO [corticosterone]
[1]; [6]
  Oral Absorption (%): 100%
[1]; [7]
  Oral Absorption (%): 100%

## COc1cc([C@@H]2c3cc4c(cc3[C@@H](O[C@@H]3O[C@@H]5CO[C@@H](C)O[C@H]5[C@H](O)[C@H]3O)[C@H]3COC(=O)[C@H]23)OCO4)cc(OC)c1O [etoposide]
[1]; [8]
  Oral Absorption (%): 50%
[1]; [9]
  Oral Absorption (%): 50%

## COc1cc(CC(C)N)c(OC)cc1Br (stereo not drawn) [2,5-dimethoxy-4-bromoamphetamine]
[2]
  Membrane affinity IAM.PS: 4.68
  Membrane binding properties IAM.PS: 143.400
[3]
  Membrane affinity IAM.SM: 1.62
  Membrane binding properties IAM.SM: 20.970
[4]
  Membrane affinity IAM.PE: 3.22
  Membrane binding properties IAM.PE: 20.950
[5]
  Membrane affinity IAM.PC: 2.07
  Membrane binding properties IAM.PC: 15.260

## CNC1(c2ccccc2Cl)CCCCC1=O (stereo not drawn) [ketamine]
[1]; [8]
  Oral Absorption (%): 20%
[1]; [9]
  Oral Absorption (%): 20%

## CCCC(=O)Nc1ccc(OCC(O)CNC(C)C)c(C(C)=O)c1 (stereo not drawn) [acebutolol]
[1]; [8]
  Oral Absorption (%): 37%
[1]; [9]
  Oral Absorption (%): 37%

## CCOC(=O)C(C)(C)Oc1ccc(Cl)cc1 [clofibrate]
[1]; [6]
  Oral Absorption (%): 95%
[1]; [7]
  Oral Absorption (%): 95%

## O=C1CN=C(c2ccccc2Cl)c2cc([N+](=O)[O-])ccc2N1 [clonazepam]
[1]; [6]
  Oral Absorption (%): 98%
[1]; [7]
  Oral Absorption (%): 98%

## CCN1CCCC1CNC(=O)c1cc(S(N)(=O)=O)ccc1OC (stereo not drawn) [sulpiride]
[1]; in vivo, po
  Oral Absorption (%): 36%

## CNC1=Nc2ccc(Cl)cc2C(c2ccccc2)=[N+]([O-])C1 [chlorodiazepoxide, chlordiazepoxide]
[1]; [6]
  Oral Absorption (%): 100%
[1]; [7]
  Oral Absorption (%): 100%

## CC(N)Cc1ccc2c(c1)OCO2 (stereo not drawn) [MDA, 3,4-methylendioxyamphetamine]
[2]
  Membrane affinity IAM.PS: 3.28
[3]
  Membrane affinity IAM.SM: −0.0647
[4]
  Membrane affinity IAM.PE: 1.32
[5]
  Membrane affinity IAM.PC: 0.298

## COc1cc(C[C@@H](C)N)c(OC)cc1I [(R)-2,5-dimethoxy-4-iodoamphetamine]
[2]
  Membrane binding properties IAM.PS: 260.200
[3]
  Membrane binding properties IAM.SM: 53.41
[4]
  Membrane binding properties IAM.PE: 29.76
[5]
  Membrane binding properties IAM.PC: 55.53

## CCC1(c2ccccc2)C(=O)NC(=O)NC1=O [phenobarbital]
[1]; [6]
  Oral Absorption (%): 100%
[1]; [7]
  Oral Absorption (%): 100%

## CNC(=C[N+](=O)[O-])NCCSCc1ccc(CN(C)C)o1 [ranitidie, ranitidine]
[1]; [8]
  Oral Absorption (%): 50%
[1]; [9]
  Oral Absorption (%): 50%
